Laboratory results as given in patent US9834544B2, “Sweet flavor modifier” (SENOMYX, INC., priority 2011, dated 2017).

Assays:
Assay type in all cases: in vivo
[1] = system: Human Panelists; experiment: Sweet flavor enhancement, human panelists, paired comparison test
Protocol: (§1) Test samples containing experimental compounds are presented in pairs to the panelist and they are asked to determine which of the sample is sweeter. A group of 10-16 or more panelists participated in each test. Subjects refrained from eating or drinking (except water) for at least 1 hour prior to the test. Subjects rinsed with water several times to clean the mouth.
All samples are prepared with ethanol to ensure dispersion of the compound in solution. This includes samples without compound; all solutions are balanced for 0.1% ethanol.
Samples are also prepared with low sodium buffer (pH 7.1) in place of water. Buffer contains 0.952 g of KCl, 5.444 g of Na2HPO4, and 0.952 g of KH2PO4 in 40 L of DIUF water. Sample volumes are usually 20 ml.
(§2) In one paired comparison test, the panelist is presented with two different samples and asked to identify the sample which is sweeter. The samples within a paired comparison test are presented in a randomized, counterbalanced order. Panelists have up to a 1 minute delay between taste tests to clear the mouth of any tastes.
(§3) Binomial probability tables are used to determine the probability of the correct number of responses occurring for each test at alpha=0.05

[2] = system: Human Panelists; experiment: Paired comparison test with Compound D5 in product prototype (drinks)
Protocol: as §1, §2, §3
Human panelists evaluated various drinks (e.g., tea, coffee, Kool-Aid) in paired comparison taste test procedure.

[3] = system: Human Panelists; experiment: Sweet flavor enhancement, human panelists, scaling test; conditions: 0 to 15 scale, n = 30
Description: Test samples containing experimental compounds were compared to a dose-response curve for perceived sweetness intensity of sweeteners (sucralose, sucrose, fructose and other sweeteners) concentrations to determine equivalent sweetness intensity.
A group of eight or more panelists tasted solutions including sweeteners at various concentrations, as well as the experimental compound both with and without added sweetener. Panelists then rated sweetness intensity of all samples on a structured horizontal line scale, anchored from 0 to 15, where 0 equals no sweetness and 15 equals equivalent sweetness to a 15% sucrose sample. Scores for sweetness intensity were averaged across panelists. Then using the average scores and/or equation of the line for the sweetener dose-response curve, equivalent sweetness concentrations were determined for the samples containing experimental compounds.
Subjects had been previously familiarized with the key attribute taste and were trained to use the 0 to 15 point line scale. Subjects refrained from eating or drinking (except water) for at least 1 hour prior to the test. Subjects ate a cracker and rinsed with water several times to clean the mouth.
Sweetener solutions are provided at a wide range of concentrations such as 100 ppm, 200 ppm, 300 ppm, 400 ppm, and 500 ppm for sucralose, or between 0% and 12% for sucrose or fructose, in order to create a dose-response curve. Samples containing experimental compound were prepared both alone and in a 100 ppm sucralose solution or a 6% sucrose or fructose solution. All samples were made up in low sodium buffer pH 7.1. In order to aid dispersion, solutions can be made up in 0.1% ethanol.
The solutions were dispensed in 20 ml volumes into 1 oz. sample cups and served to the subjects at room temperature. All samples were presented in randomized counterbalanced order to reduce response bias. Further, two sessions of testing may be used to check panel precision.
Subjects tasted each sample individually and rate sweetness intensity on the line scale prior to tasting the next sample. All samples were expectorated. Subjects may retaste the samples but can only use the volume of sample given. Subjects must rinse with water between samples. Eating an unsalted cracker between samples may be required depending on the samples tasted.
The scores for each sample were averaged across subjects and standard error was calculated. The dose-response curve was plotted graphically, and this may be used to ensure the panel is rating accurately; i.e., increasing the concentration of sucralose should correspond to increased average scores for sweetness. […]

## OC[C@H]1O[C@@](CO)(O[C@H]2O[C@H](CO)[C@@H](O)[C@H](O)[C@H]2O)[C@@H](O)[C@@H]1O [Sucrose]
[1]; 1% Sucrose vs LSB + 27.8 μM Compound D5, n = 45
  Sample selected as sweeter by panelists, Total: 43
[1]; 1% Sucrose vs LSB + 27.8 μM Compound Y5, n = 45
  Sample selected as sweeter by panelists, Total: 44
[1]; 1% Sucrose vs LSB + 111.3 μM Compound D5, n = 29
  Sample selected as sweeter by panelists, Total: 21
[1]; 10% Sucrose vs 6% Sucrose + 24.9 μM Compound E5, n = 39
  Sample selected as sweeter by panelists, Total: 13
[1]; 10% Sucrose vs 6% Sucrose + 26.8 μM Compound L6, n = 45
  Sample selected as sweeter by panelists, Total: 14
[1]; 10% Sucrose vs 6% Sucrose + 26.9 μM Compound A6, n = 45
  Sample selected as sweeter by panelists, Total: 9
[1]; 10% Sucrose vs 6% Sucrose + 26.9 μM Compound Q5, n = 48
  Sample selected as sweeter by panelists, Total: 13
[1]; 10% Sucrose vs 6% Sucrose + 26.9 μM Compound R5, n = 42
  Sample selected as sweeter by panelists, Total: 16
[1]; 10% Sucrose vs 6% Sucrose + 27.8 μM Compound D5, n = 45
  Sample selected as sweeter by panelists, Total: 13
[1]; 10% Sucrose vs 6% Sucrose + 27.8 μM Compound Y5, n = 11 (11 panelists × 2 reps)
  Sample selected as sweeter by panelists, Total: 8
[1]; 10% Sucrose vs 6% Sucrose + 27.9 μM Compound K5, n = 45
  Sample selected as sweeter by panelists, Total: 11
[1]; 10% Sucrose vs 6% Sucrose + 28.9 μM Compound E6, n = 39
  Sample selected as sweeter by panelists, Total: 18
[2]; 8% Sucrose Brewed Neutral Black Tea vs 4% Sucrose Brewed Neutral Black Tea + 30.6 μM Compound D5, n = 39
  Sample selected as sweeter by panelists, Total: 22
[2]; 8% Sucrose Coffee Drink vs 4% Sucrose Coffee Drink + 23.65 μM Compound D5, n = 39
  Sample selected as sweeter by panelists, Total: 20
[2]; 10% Sucrose Cherry Kool-Aid vs 5% Sucrose Cherry Kool-Aid + 41.7 μM Compound D5, n = 33
  Sample selected as sweeter by panelists, Total: 18
[2]; 10% Sucrose Lemonade Kool-Aid vs 5% Sucrose Lemonade Kool-Aid + 41.7 μM Compound D5, n = 48
  Sample selected as sweeter by panelists, Total: 27
[3]; 6% Sucrose
  Average Sweetness: 6.6
[3]; 8% Sucrose
  Average Sweetness: 8.1
[3]; 10% Sucrose
  Average Sweetness: 9.8
[3]; 12% Sucrose
  Average Sweetness: 11.0
